In this assay the target is T1, AMPK A1/B1/G1 (Homo sapiens, UniProt Q13131).
T1 construct: purchased Thermo Fisher Scientific (Life Technologies) SelectScreen
The assay can be described thus: SelectScreen Z'LYTE. The class given is biochemical. Summed up: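 SelectScreen broad panel; activity (Z'LYTE, Adapta) plus binding formats. ATP: Km app for CSF1R Z'LYTE; 10 for CAMK1 Adapta. Readout = % per kinase.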

T1 sequence (Q13131 whole entry): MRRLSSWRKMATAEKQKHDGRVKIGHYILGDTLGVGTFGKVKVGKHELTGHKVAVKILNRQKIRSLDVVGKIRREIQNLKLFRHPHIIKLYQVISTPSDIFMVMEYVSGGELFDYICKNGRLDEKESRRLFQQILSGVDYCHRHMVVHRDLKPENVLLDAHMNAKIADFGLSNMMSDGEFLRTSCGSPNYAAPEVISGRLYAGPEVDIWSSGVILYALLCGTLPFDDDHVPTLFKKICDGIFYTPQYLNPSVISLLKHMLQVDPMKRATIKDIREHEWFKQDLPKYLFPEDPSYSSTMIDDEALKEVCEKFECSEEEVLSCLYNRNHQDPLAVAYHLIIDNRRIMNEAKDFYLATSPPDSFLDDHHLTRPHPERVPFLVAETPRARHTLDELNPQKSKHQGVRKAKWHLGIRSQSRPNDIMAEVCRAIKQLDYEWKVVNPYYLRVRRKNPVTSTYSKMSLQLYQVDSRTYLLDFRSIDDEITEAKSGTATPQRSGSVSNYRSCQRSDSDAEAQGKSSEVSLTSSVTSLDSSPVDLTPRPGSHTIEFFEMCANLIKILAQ
T1 sequence (Q9Y478 whole entry partner): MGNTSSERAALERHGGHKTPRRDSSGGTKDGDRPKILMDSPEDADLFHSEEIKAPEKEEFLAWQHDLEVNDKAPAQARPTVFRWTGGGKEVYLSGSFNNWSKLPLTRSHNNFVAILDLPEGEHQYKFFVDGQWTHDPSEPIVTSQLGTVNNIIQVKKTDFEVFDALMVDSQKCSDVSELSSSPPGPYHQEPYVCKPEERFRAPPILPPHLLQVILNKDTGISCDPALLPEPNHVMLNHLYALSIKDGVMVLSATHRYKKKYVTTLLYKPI
T1 sequence (P54619 whole entry partner): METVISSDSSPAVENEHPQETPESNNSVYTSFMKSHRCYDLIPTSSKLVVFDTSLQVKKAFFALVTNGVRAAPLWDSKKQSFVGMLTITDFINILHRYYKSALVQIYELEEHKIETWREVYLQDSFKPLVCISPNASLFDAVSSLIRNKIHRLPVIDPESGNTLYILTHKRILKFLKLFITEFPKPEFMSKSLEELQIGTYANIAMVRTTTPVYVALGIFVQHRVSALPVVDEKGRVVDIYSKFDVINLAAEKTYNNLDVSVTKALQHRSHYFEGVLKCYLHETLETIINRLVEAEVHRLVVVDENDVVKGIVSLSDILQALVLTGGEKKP

Turning to `CN(C(=O)CN1CCOCC1)c1ccc2sc3c(-c4cccc5c(=O)cc(N6CC7CCC(C6)O7)oc45)cccc3c2c1` [NU5455], the inhibition at 1 µM was -1.2%.

For the origin of these results see publication PMC6934184, “Selective DNA-PKcs inhibition extends the therapeutic index of localized radiotherapy and chemotherapy” (The Journal of Clinical Investigation, 2019).
